# Values quoted from earlier work, collected in patent US20260345619A1 (Principia Biopharma Inc., priority 2023, published 2026).
# Experiments:
# [1] = read-out: IC50 for RLK; cited from earlier work
# other TEC family members = settings: preclinical assays; cited from earlier work
# [2] = healthy volunteers (N=51), even at supratherapeutic doses; cited from earlier work
smiles,measurement,setting,value
"CC(C)(C=C(C#N)C(=O)N1CCC[C@@H](n2nc(-c3ccc(Oc4ccccc4)cc3F)c3c(N)ncnc32)C1)N1CCN(C2COC2)CC1 (mixture of isomers) [rilzabrutinib, (R)-2-[3-[4-amino-3-(2-fluoro-4-phenoxy-phenyl)pyrazolo[3,4-d]pyrimidin-1-yl]piperidine-1-carbonyl]-4-methyl-4-[4-(oxetan-3-yl)piperazin-1-yl]pent-2-enenitrile]",IC50,[1],1.2 nM
same,binding to other TEC family members over time,other TEC family members,decayed rapidly over time
same,effect on cardiac repolarization,[2],does not exert clinically relevant effects on cardiac repolarization
